Bounds are passed on as bounds.

Experiment [1] concerns the target T1, Glucocorticoid receptor (Homo sapiens, UniProt P04150).
T1 sequence (P04150 whole entry): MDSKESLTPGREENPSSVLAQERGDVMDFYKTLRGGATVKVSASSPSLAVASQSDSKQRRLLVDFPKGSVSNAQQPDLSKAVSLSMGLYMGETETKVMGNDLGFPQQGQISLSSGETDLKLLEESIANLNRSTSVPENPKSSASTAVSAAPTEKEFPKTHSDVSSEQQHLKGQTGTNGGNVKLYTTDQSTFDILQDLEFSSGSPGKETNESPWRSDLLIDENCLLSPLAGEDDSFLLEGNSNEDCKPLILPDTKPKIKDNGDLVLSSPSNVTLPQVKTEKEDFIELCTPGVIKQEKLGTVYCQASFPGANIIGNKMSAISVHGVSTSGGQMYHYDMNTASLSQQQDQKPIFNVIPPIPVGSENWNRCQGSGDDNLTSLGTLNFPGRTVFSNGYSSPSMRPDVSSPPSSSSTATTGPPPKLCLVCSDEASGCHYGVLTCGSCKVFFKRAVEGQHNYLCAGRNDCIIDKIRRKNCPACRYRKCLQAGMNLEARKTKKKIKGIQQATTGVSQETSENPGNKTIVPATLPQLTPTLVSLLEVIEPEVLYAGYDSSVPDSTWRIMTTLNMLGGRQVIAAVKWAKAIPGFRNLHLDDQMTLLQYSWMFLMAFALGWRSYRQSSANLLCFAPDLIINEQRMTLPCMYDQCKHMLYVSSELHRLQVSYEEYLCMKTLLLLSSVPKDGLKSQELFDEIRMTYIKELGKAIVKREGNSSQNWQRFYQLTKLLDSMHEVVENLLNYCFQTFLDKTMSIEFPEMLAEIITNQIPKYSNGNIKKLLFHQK
In kind it is functional.

The target in experiment [2] is T2, Peroxisome proliferator-activated receptor gamma (Homo sapiens, UniProt P37231).
T2 sequence (P37231 whole entry): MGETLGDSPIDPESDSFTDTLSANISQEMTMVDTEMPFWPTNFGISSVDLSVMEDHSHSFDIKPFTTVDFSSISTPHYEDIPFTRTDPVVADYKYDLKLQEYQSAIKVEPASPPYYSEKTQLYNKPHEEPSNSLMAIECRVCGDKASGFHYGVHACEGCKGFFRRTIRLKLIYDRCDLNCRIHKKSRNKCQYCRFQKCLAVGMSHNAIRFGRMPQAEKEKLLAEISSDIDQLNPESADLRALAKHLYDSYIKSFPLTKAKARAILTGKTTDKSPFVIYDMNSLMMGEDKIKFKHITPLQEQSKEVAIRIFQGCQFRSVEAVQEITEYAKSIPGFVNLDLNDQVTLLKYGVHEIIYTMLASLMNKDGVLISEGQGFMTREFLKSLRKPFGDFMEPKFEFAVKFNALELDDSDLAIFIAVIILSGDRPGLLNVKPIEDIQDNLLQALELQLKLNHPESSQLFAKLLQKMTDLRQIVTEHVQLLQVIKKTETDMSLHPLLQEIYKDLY
The experiment is classed as functional.

In experiment [3] the target is T3, Neuropeptide Y receptor type 2 (Homo sapiens, UniProt P49146).
T3 sequence (P49146 whole entry): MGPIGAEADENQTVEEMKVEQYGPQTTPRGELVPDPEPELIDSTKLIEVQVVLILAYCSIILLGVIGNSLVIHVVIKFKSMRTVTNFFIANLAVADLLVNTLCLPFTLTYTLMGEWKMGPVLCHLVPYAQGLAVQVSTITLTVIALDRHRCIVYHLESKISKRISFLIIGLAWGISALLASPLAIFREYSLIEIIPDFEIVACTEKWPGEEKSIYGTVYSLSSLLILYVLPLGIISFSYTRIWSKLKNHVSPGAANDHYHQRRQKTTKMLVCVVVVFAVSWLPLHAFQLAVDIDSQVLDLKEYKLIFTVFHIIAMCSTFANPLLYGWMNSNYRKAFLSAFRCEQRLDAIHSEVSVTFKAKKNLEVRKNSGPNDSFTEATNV

Experiment [4] addresses T4, Muscarinic acetylcholine receptor M2 (Homo sapiens, UniProt P08172).
T4 sequence (P08172 whole entry): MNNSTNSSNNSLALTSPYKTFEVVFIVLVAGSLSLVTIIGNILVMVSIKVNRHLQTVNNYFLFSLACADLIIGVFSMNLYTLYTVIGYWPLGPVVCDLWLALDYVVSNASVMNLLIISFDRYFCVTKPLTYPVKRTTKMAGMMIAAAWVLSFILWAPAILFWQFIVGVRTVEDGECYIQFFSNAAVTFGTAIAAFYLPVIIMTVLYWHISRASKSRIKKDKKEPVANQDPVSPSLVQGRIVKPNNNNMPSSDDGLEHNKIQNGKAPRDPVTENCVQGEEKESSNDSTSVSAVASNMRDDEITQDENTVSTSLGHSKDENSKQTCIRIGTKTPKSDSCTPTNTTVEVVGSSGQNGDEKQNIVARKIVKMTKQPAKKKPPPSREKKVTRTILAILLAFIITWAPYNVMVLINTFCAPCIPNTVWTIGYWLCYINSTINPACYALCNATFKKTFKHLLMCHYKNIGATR
Further: assay procedure not described here.

In the case of `COC(=O)[C@H](c1ccccc1Cl)N1CCc2sccc2C1` [CLOPIDOGREL], the AC50 was above 30 µM in experiment [1], above 30 µM in experiment [2], above 30 µM in experiment [3] and above 10 µM in experiment [4].

Take `CCCN(CCC)CCc1cccc2c1CC(=O)N2` [ROPINIROLE]: the AC50 in experiment [1] was above 30 µM; in experiment [2] it was above 30 µM; in experiment [3], above 30 µM; in experiment [4], 12.1 µM.

Turning to `CC(=O)S[C@@H]1CC2=CC(=O)CC[C@]2(C)[C@H]2CC[C@@]3(C)[C@@H](CC[C@@]34CCC(=O)O4)[C@H]12` [SPIRONOLACTONE], the half-maximal activity concentration (AC50) in experiment [1] is 5.5 µM; in experiment [2], above 30 µM; in experiment [3] it was above 30 µM; in experiment [4] it was above 10 µM.

The record behind these values is ChEMBL document CHEMBL5291721, “A preclinical secondary pharmacology resource illuminates target-adverse drug reaction associations of marketed drugs” (Nat Commun, 2023).
